# Literature values, collected in patent publication US20050049268A1, “Use of at least one abl, kit and/or platelet-derived growth factor receptor tyrosine kinases inhibitor for treating hair depigmentation” (priority 2001, published 2005).
# Tests used:
# [1] = system: platelet-derived growth factor (PDGF) receptor tyrosine kinases; settings: in vitro
# [2] = target: α-PDGF receptor (Homo sapiens, UniProt P16234)
# [3] = target: β-PDGF receptor (Homo sapiens, UniProt P09619)
# [4] = target: c-Met (Homo sapiens, UniProt P08581)
# Sequence of c-Met (P08581 25-1390): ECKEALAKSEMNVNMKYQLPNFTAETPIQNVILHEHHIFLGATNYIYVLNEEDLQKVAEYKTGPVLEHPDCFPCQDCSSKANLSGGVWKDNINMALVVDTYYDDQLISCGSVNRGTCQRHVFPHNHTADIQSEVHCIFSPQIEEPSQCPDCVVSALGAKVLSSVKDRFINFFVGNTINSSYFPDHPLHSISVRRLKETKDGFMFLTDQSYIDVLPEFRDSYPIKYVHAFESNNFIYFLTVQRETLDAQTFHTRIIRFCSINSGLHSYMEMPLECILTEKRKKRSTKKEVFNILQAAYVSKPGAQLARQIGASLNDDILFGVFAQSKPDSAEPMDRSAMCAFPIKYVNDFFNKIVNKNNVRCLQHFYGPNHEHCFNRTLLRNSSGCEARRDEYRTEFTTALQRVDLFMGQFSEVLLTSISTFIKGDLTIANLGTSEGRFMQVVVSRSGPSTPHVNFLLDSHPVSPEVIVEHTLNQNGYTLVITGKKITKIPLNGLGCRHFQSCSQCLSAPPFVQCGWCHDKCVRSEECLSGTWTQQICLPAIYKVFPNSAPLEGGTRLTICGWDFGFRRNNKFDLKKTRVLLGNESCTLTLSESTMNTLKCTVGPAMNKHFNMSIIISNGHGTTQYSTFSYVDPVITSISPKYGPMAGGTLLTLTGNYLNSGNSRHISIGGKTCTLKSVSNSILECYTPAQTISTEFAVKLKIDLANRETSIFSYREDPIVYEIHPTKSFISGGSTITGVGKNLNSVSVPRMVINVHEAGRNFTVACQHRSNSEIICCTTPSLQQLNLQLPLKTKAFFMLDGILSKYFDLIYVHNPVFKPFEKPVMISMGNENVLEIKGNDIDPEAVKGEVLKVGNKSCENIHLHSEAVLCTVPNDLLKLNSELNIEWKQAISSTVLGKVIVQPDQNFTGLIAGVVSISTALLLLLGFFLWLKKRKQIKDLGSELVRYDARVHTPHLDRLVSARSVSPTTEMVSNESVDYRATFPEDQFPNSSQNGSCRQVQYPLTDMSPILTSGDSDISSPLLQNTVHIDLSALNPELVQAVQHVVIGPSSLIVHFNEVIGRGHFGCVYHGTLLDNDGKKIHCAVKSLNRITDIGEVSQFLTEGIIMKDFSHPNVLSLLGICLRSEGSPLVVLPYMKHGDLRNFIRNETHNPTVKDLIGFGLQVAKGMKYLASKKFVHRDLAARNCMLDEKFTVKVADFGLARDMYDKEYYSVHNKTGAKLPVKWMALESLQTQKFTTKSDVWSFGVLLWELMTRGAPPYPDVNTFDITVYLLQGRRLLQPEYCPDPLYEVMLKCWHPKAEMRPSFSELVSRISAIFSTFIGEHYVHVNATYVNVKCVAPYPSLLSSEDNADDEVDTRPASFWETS
# [5] = target: Jak-2 (Homo sapiens, UniProt O60674)
# Sequence of Jak-2 (O60674 whole entry, species assumed): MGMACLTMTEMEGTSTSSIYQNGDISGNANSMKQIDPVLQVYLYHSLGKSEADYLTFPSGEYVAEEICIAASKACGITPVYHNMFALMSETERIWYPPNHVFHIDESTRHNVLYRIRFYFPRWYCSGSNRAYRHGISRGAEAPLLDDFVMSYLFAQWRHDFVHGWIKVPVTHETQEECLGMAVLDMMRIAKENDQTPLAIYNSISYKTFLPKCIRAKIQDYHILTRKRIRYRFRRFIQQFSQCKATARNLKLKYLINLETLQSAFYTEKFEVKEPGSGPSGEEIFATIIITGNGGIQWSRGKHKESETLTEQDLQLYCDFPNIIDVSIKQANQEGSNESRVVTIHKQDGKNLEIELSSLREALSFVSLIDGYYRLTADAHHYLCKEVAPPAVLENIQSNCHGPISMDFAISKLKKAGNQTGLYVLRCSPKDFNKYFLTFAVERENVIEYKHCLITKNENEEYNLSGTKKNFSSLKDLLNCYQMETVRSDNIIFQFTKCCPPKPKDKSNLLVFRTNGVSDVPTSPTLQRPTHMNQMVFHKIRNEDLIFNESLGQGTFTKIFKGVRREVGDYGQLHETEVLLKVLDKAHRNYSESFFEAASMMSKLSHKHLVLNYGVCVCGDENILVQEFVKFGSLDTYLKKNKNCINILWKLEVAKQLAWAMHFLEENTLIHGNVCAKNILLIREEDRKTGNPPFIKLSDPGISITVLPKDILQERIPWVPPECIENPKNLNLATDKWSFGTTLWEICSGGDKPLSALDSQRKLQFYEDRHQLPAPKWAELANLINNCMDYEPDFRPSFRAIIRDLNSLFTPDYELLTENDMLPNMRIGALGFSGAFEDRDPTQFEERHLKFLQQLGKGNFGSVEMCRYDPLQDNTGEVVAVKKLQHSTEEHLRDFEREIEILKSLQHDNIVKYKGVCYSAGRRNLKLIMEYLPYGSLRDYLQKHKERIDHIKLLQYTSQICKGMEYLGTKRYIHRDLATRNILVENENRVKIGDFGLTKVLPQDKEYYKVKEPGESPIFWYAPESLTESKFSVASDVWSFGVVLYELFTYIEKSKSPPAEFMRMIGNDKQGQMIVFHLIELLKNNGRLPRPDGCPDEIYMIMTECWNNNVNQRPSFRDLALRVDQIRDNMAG
# [6] = target: receptor for stem cell factor (Homo sapiens, UniProt P10721)
# Sequence of receptor for stem cell factor (P10721 26-976): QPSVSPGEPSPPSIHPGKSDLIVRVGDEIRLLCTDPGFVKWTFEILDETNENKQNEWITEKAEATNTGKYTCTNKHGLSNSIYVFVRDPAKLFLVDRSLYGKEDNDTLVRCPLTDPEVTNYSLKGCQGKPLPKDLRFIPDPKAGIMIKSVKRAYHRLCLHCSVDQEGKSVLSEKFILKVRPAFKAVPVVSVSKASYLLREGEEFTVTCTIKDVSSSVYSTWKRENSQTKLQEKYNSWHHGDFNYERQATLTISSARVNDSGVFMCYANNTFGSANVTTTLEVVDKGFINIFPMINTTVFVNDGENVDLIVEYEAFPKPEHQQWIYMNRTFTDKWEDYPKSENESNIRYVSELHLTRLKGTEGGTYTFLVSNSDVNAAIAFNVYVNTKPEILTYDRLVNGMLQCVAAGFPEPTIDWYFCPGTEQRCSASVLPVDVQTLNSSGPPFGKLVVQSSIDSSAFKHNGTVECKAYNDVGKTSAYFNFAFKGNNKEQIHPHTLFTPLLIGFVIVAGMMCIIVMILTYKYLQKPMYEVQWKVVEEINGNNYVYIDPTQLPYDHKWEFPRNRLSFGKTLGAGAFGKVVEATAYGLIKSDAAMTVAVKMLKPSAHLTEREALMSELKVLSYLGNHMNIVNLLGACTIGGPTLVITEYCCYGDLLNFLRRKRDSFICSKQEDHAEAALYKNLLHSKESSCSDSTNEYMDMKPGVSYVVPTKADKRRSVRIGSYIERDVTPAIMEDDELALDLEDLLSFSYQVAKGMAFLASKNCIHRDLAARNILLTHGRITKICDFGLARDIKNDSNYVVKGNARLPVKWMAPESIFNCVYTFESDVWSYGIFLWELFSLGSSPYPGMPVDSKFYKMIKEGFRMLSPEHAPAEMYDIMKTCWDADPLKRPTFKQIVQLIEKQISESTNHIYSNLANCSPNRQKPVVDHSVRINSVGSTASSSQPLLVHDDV
# Sequence of α-PDGF receptor (P16234 24-1089): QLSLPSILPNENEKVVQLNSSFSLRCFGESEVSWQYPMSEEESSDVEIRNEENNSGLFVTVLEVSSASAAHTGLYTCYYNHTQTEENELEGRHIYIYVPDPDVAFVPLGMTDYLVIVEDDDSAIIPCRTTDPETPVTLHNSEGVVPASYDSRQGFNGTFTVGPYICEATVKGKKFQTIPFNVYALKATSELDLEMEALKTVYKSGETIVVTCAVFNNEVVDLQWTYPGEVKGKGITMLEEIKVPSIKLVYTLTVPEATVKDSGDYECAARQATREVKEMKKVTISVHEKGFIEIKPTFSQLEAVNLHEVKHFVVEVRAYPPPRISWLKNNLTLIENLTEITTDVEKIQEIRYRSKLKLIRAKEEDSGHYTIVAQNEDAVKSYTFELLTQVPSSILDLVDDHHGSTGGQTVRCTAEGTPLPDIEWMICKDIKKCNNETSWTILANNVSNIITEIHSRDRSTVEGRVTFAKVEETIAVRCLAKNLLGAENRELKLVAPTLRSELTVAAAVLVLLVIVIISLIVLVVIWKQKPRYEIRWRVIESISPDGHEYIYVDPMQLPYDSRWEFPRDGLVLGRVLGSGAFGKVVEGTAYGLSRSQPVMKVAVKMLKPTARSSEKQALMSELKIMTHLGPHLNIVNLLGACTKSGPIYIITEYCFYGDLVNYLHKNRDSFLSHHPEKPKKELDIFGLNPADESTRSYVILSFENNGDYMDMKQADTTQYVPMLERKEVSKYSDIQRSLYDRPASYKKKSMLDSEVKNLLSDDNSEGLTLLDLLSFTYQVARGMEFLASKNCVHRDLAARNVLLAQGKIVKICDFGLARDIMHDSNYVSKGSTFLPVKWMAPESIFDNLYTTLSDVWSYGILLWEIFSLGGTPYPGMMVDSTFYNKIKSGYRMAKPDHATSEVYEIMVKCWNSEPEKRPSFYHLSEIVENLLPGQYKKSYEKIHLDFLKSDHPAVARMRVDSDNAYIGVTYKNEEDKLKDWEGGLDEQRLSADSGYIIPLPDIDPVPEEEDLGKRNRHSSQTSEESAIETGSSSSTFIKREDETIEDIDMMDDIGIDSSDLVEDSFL
smiles,measurement,setting,value
"Cc1ccc(NC(=O)c2ccc(CN3CCN(C)CC3)cc2)cc1Nc1nccc(-c2cccnc2)n1 [Imatinib, N-{5-[4-(4-methyl-piperazino-methyl)-benzoylamido]-2-methylphenyl}-4-(3-pyridyl)-2-pyrimidine-amine]",inhibition of PDGF receptor tyrosine kinases,[1],selectively inhibits
same,inhibition of kinase activity of α-PDGF receptor,[2],potently inhibit
same,inhibition of kinase activity of β-PDGF receptor,[3],potently inhibit
same,inhibition of c-Met,[4],no inhibition
same,inhibition of Jak-2,[5],no inhibition
same,inhibition of kinase activity of the receptor for stem cell factor,[6],potently inhibit
